1 compound from US20050142230A1, “Pharmic activity and manufacturing method of the production produced by six kinds of plant compound” (priority 2003, published 2005) can be followed below.

In the experiment the test system is male white mice. Description: Hypnosis effect taking orally (lost righting reflex half minute). Particulars: for The sleep animals: 30 mg/kg, n=25. Type of experiment: in vivo. As for the experimental part:
The male white mice (weighing 18-22 g) were divided into groups at random. Every group had twenty five. Experimental group douched the stomach with the compound by 0.08, 0.3, 0.4 ml/10 g, pentobabital sodium 30 mg/kg, the control group gave the same volumn saline. Then put them into the constant temperature infant cabinet at 37° C. We observed the mumber of the mice sleep. The standard was the half minute continous lost righting reflexs (table 3 was the result). […] The compound wares had hypnosis effect.

Each structure is given as a SMILES string.

Regarding `CCCC(C)C1(CC)C(=O)N=C([O-])NC1=O.[Na+]` (centres unmarked) [Pentobabital sodium], the The sleep animals worked out at 20TT (5′), 25TT (30′), 21TT (60′) and 13 (90′). For the setting “30 ml/kg as printed in text, mice”, the “Hypnosis effect (in words)” value is given as “let them all sleep”.
